# From PMC6385087, “New Multitarget Hybrids Bearing Tacrine and Phenylbenzothiazole Motifs as Potential Drug Candidates for Alzheimer’s Disease” (Molecules, 2019)
# pIC50: −log10 of the molar value. “Also recorded” adds a separate entry of the source.
# Assays:
# SH-SY5Y cells = assay: Neuroprotection against Aβ1–42 induced toxicity, MTT reduction; format: cell-based, human; conditions: Aβ1-42 1 μM, 24 h after 1 h pre-treatment, compounds: 16 2.5 µM, 17 0.5 µM, 14 and 15 0.2 µM, 19 and 18 1 µM
# Procedure: The neuroprotective effect of TAC-PhBTA conjugates was evaluated using SH-SY5Y cells treated with Aβ1–42 peptides or ascorbate/iron. For each compound, a dose-response curve was performed to select a non-toxic concentration in order to analyze its neuroprotective effect (Figure 3).
# SH-SY5Y human neuroblastoma cell line (ATCC-CRL-2266) grown in Dulbecco’s modified Eagle’s medium (DMEM) obtained from Gibco-Invitrogen (Life Technologies Ltd., Liverpool, UK) with 10% heat inactivated fetal calf serum, containing 50 U/mL penicillin, and 50 μg/mL streptomycin, under a humidified atmosphere of 95% air-5% CO2 at 37 °C. Cells were plated at 0.12 × 10^6 cells/mL for cell viability assay. The tested compounds (16, 17, 14, 15, 19 and 18) were dissolved in DMSO at a concentration of 25 mM and aliquots were stored at −20 °C. We performed a dose-response screening (from 0.2 μM to 5 μM) in order to choose the highest non-toxic concentration. As a result we selected a 2.5 μM final concentration for compound 16; 0.5 μM final concentration for compound 17; 0.2 μM final concentration for compounds 14 and 15; and a 1 μM final concentration for compounds 19 and 18. […] The compounds were added to the cell media 1 h before the incubation with Aβ1–42 or ferrous sulfate/L-ascorbic acid. Aβ1–42 or ferrous sulfate/L-ascorbic acid where incubated alone or with the compound for an additional 24 h. Aβ1–42 was prepared as 276.9 μM stock in sterile water and added to the medium at 1 μM final concentration. Ferrous sulfate was freshly prepared as 0.36 M stock in water and added to the medium at 500 μM final concentration. L-Ascorbic Acid was freshly prepared as 80 mM stock in water and added to the medium at 5 mM final concentration. […]
# Cell viability was determined by a MTT (3-(4,5-dimethylthiazol-2-yl)-2,5-diphenyltetrazolium bromide) reduction test. […] The absorbance was measured at 570 nm. Cell reduction ability was expressed as a percentage of untreated control cells.
# All data were expressed as mean ± S.E.M. of at least three independent experiments performed in duplicates. […]
# AChE from electric eel = biological target: T1, AChE from electric eel (Electrophorus electricus, UniProt O42275); assay: biochemical; conditions: means of two experiments, read-out: Inhibition of AChE (IC50)
# T1 construct: commercially available enzyme AChE 500 U (extracted from electrophorus electricus); purchased type VI-S; host or cells: extracted from electric eel
# T1 sequence (O42275 24-633): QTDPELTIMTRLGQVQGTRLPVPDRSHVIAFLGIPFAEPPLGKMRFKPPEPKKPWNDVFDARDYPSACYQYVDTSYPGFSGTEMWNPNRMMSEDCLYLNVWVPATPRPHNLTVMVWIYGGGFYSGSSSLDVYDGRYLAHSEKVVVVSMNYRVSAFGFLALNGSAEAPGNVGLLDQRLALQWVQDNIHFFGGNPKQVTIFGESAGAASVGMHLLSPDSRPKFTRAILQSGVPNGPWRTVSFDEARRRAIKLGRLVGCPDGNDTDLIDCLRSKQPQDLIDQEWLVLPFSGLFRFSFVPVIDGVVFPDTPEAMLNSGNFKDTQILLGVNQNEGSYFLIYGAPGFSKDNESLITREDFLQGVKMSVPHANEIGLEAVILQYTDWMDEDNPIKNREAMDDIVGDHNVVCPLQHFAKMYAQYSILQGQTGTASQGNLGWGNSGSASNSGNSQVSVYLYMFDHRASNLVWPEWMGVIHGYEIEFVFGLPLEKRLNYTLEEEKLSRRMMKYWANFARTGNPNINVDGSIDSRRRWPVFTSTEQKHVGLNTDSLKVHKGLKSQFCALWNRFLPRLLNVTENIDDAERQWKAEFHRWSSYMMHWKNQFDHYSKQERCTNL
# Procedure: The analytical grade reagents were purchased from Sigma-Aldrich (St. Louis, MO, USA) and Acros (Thermo Fisher Scientific, Geel, Belgium) and were used without any further purification. The organic solvents were dried and distilled according to standard methods described in literature. […] The Proton and Carbon-13 NMR were recorded either on Bruker AVANCE III-300 (300 MHz and 75.5 MHz) or Bruker AVANCE III-400 (400 MHz and 100.5 MHz) NMR spectrometers (Billerica, MA, USA) at 25 °C using peaks of solvents as internal standard. The chemical shift values of protons or carbons were measured on a δ scale and the coupling constant values (J) were determined in Hertz. In the NMR representation, abbreviations are mentioned as: singlet represented by s, doublet represented by d, triplet represented by t, multiplet represented by m, double doublet represented by dd, and broad singlet represented by brs. The Leica Galen III hot stage apparatus (Leica Microsystems, Wetzlar, Germany) was used for measuring the melting points of compounds. […] The AChE inhibitory activity was measured in a 1 cm path length quartz cell through a Perkin Elmer Lambda 35 spectrophotometer equipped with a temperature programmer PTP1+1 Peltier System (T = 25.0 ± 0.1 °C) (Waltham, MA, USA). Electrospray ionization-mass (ESI-MS) measurements were carried out on a LCQ Fleet mass spectrometer (Thermo Scientific, S. Jose, CA, USA) operated in the ESI positive and negative ion modes.
# Modified Ellman’s method was used as described previously for the determination of AChE activity. The AChE stock solution was prepared by dissolving commercially available enzyme AChE 500 U (extracted from electrophorus electricus) in 10 mL of TRIS buffer (50 mM, pH 8). HEPES buffer was used for the dilution of the enzyme to give the final AChE concentration. The assay solution consisted of 374 μL of 4-(2-hydroxyethyl)-1-piperazineethanesulfonic acid (Hepes) buffer (50 mM, pH 8.0), 476 μL of 3 mM bis(3-carboxy-4-nitrophenyl)disulfide (DTNB), 25 μL of AChE (type VI-S, from electric eel) stock solution, a variable volume (10–50 μL) of the compound’s stock solution (1 mg/mL of MeOH), and the necessary amount of methanol to attain the same volume of sample mixture (0.925 mL) in a 1 mL cuvette. Samples were left to react for 15 min and then the reaction was monitored at wavelength of 405 nm for 5 min, after adding 75 μL of 16 mM acetylthiocholine iodide (AChI) solution. Assays were run with a blank containing all the components except AChE, which was replaced by HEPES buffer. The velocities of the reaction were calculated as well as the enzyme activity. A control reaction was carried out using the sample solvent (methanol) in the absence of any tested compound, and it was considered as 100% activity. […] The inhibition curves were obtained by plotting the percentage of enzymatic inhibition versus inhibitor concentration and a calibration curve was obtained from which the linear regression parameters were calculated.
Compound,"Prevention of Aβ-induced cell toxicity (cell viability, MTT) (SH-SY5Y cells)",pIC50 (AChE from electric eel)
"COc1cc(-c2nc3ccccc3s2)ccc1OCC(=O)NCCCNc1c2c(nc3ccccc13)CCCC2 [compound 16, 2-(4-(Benzo[d]thiazol-2-yl)-2-methoxyphenoxy)-N-(3-((1,2,3,4-tetrahydroacridin-9-yl)amino)propyl)acetamide]",capacity to prevent Aβ-induced toxicity; also recorded: prevented Aβ-induced cell toxicity,6.82
"COc1cc(-c2nc3ccccc3s2)ccc1OCC(=O)NCC(O)CNc1c2c(nc3cc(Cl)ccc13)CCCC2 (stereo not drawn) [compound 19, 2-(4-(Benzo[d]thiazol-2-yl)-2-methoxyphenoxy)-N-(3-((6-chloro-1,2,3,4-tetrahydroacridin-9-yl)amino)-2-hydroxypropyl)acetamide]",capacity to prevent Aβ-induced toxicity; also recorded: prevented Aβ-induced cell toxicity,6.85
"COc1cc(-c2nc3ccccc3s2)ccc1OCC(=O)NCCNc1c2c(nc3cc(Cl)ccc13)CCCC2 [compound 15, 2-(4-(Benzo[d]thiazol-2-yl)-2-methoxyphenoxy)-N-(2-((6-chloro-1,2,3,4 tetrahydroacridin-9-yl)amino)ethyl)acetamide]",capacity to prevent Aβ-induced toxicity; also recorded: prevented Aβ-induced cell toxicity,7.22
